# Values quoted from earlier work as cited in paper PMC7465353, “Antioxidant Effects of PS5, a Peptidomimetic of Suppressor of Cytokine Signaling 1, in Experimental Atherosclerosis” (Antioxidants, 2020).
# System: VSMCs
substance,measurement,value
"KIR peptide: peptide encompassing residues 52–67, i.e., kinase inhibitory region (KIR) of SOCS1 (DTHFRTFRSHADYRRI; UniProt O15524 52-67, looked up, fragment)","VSMC migration, wound healing",significantly diminished the migration and proliferation
